Measurements: PubChem BioAssay AID248 (DTP/NCI, 2004)
Where “and” joins values, the source holds several entries; their conditions need not be identical. Equal values may be shown once. Inconclusive results and toxic doses are left out. Rule as the data show it: active = T/C of 150% or more; inactive = T/C below 125%.

Test system: L1210 leukemia ip in BDF1 mice, survival T/C
Assay: NCI In Vivo Anticancer Drug Screen. Data for tumor model L1210 Leukemia (intraperitoneal) in B6D2F1 (BDF1) mice
Settings: endpoint: mean survival time, higher = longer survival
Outline: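 Mice bearing the transplanted tumor received compound or vehicle. Survival of the treated group was divided by that of the vehicle-treated control group to give the ratio.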

[1] = dose: 100.0 mg/kg/injection, schedule: Q01DX009 (ip), vehicle: saline with Tween-80
[2] = dose: 100.0 mg/kg/injection, schedule: Q04DX003 (ip), vehicle: saline
[3] = dose: 200.0 mg/kg/injection, schedule: Q01DX009 (ip), vehicle: saline with Tween-80
[4] = dose: 200.0 mg/kg/injection, schedule: Q04DX003 (ip), vehicle: saline
[5] = dose: 400.0 mg/kg/injection, schedule: Q04DX003 (ip), vehicle: saline
[6] = dose: 100.0 mg/kg/injection, schedule: Q04DX003 (ip), vehicle: Klucel (hydroxypropylcellulose) (HPC)
[7] = dose: 100.0 mg/kg/injection, schedule: Q01DX001 (ip), vehicle: saline
[8] = dose: 200.0 mg/kg/injection, schedule: Q01DX001 (ip), vehicle: saline
[9] = dose: 50.0 mg/kg/injection, schedule: Q04DX002 (ip), vehicle: saline
[10] = dose: 100.0 mg/kg/injection, schedule: Q04DX002 (ip), vehicle: saline
[11] = dose: 200.0 mg/kg/injection, schedule: Q04DX002 (ip), vehicle: saline
[12] = dose: 200.0 mg/kg/injection, schedule: Q04DX003 (ip), vehicle: Klucel (hydroxypropylcellulose) (HPC)
[13] = dose: 400.0 mg/kg/injection, schedule: Q04DX003 (ip), vehicle: Klucel (hydroxypropylcellulose) (HPC)
[14] = dose: 100.0 mg/kg/injection, schedule: Q01DX001 (ip), vehicle: Klucel (hydroxypropylcellulose) (HPC)
[15] = dose: 200.0 mg/kg/injection, schedule: Q01DX001 (ip), vehicle: Klucel (hydroxypropylcellulose) (HPC)
[16] = dose: 400.0 mg/kg/injection, schedule: Q01DX001 (ip), vehicle: Klucel (hydroxypropylcellulose) (HPC)
[17] = dose: 400.0 mg/kg/injection, schedule: Q01DX009 (ip), vehicle: saline with Tween-80
[18] = dose: 100.0 mg/kg/injection, schedule: Q01DX009 (ip), vehicle: Klucel (hydroxypropylcellulose) (HPC)
[19] = dose: 200.0 mg/kg/injection, schedule: Q01DX009 (ip), vehicle: Klucel (hydroxypropylcellulose) (HPC)
[20] = dose: 400.0 mg/kg/injection, schedule: Q01DX009 (ip), vehicle: Klucel (hydroxypropylcellulose) (HPC)

Measured: T/C

OC1(c2ccccc2)CCC1
inactive: dose: 62.0 mg/kg/injection, schedule: Q01DX009 (ip), vehicle: saline with Tween-80 91 % of control | dose: 125.0 mg/kg/injection, schedule: Q01DX009 (ip), vehicle: saline with Tween-80 99 % of control | dose: 250.0 mg/kg/injection, schedule: Q01DX009 (ip), vehicle: saline with Tween-80 97 % of control

Cc1cc(-c2ccccc2)c2ccccc2c1N(CC(=O)O)S(=O)(=O)c1ccccc1
inactive: [1] 105 % of control | [2] 98 % of control | [3] 93 % of control | [4] 104 % of control | [5] 102 % of control

CC(NC(=O)NCCCl)C(O)c1ccccc1 (centres undefined)
inactive: dose: 20.0 mg/kg/injection, schedule: Q04DX003 (ip), vehicle: Klucel (hydroxypropylcellulose) (HPC) 103 % of control | dose: 40.0 mg/kg/injection, schedule: Q04DX003 (ip), vehicle: Klucel (hydroxypropylcellulose) (HPC) 96 % of control | dose: 80.0 mg/kg/injection, schedule: Q04DX003 (ip), vehicle: Klucel (hydroxypropylcellulose) (HPC) 102 % of control | [6] 100 % of control

NNC12CCC(c3ccccc31)c1ccccc12
inactive: dose: 100.0 mg/kg/injection, schedule: Q04DX003 (ip), vehicle: saline sonified 96 % of control | dose: 200.0 mg/kg/injection, schedule: Q04DX003 (ip), vehicle: saline sonified 101 % of control

O=[N+]([O-])c1ccc2c(N=Nc3c(O)ccc4ccccc34)c(O)cc(S(=O)(=O)O)c2c1
inactive: dose: 50.0 mg/kg/injection, schedule: Q04DX003 (ip), vehicle: saline 98 % of control | [7] 92 % of control | [8] 92 % of control | [4] 92 % of control

Cc1cn(C2CC(O)C(COP(=O)(N3CC3(C)C)N3CC3(C)C)O2)c(=O)[nH]c1=O (centres undefined)
inactive: [9] 94 % of control | [10] 105 % of control | [11] 123 % of control

O=C(CBr)c1ccc(F)cc1
inactive: dose: 2.0 mg/kg/injection, schedule: Q01DX015 (ip), vehicle: carboxymethylcellulose (CMC) 93 % of control | dose: 4.0 mg/kg/injection, schedule: Q01DX015 (ip), vehicle: carboxymethylcellulose (CMC) 105 % of control | dose: 5.0 mg/kg/injection, schedule: Q01DX001 (ip), vehicle: saline 97 % of control | dose: 8.0 mg/kg/injection, schedule: Q01DX015 (ip), vehicle: carboxymethylcellulose (CMC) 88 % of control | dose: 10.0 mg/kg/injection, schedule: Q01DX001 (ip), vehicle: saline 100 % of control | dose: 15.0 mg/kg/injection, schedule: Q01DX015 (ip), vehicle: carboxymethylcellulose (CMC) 97 % of control | dose: 20.0 mg/kg/injection, schedule: Q01DX001 (ip), vehicle: saline 92 % of control | dose: 40.0 mg/kg/injection, schedule: Q01DX001 (ip), vehicle: saline 92 % of control | dose: 80.0 mg/kg/injection, schedule: Q01DX001 (ip), vehicle: saline 97 % of control

COC1/C=C/OC2(C)Oc3c(C)c(O)c4c(O)c(c(C=NOC(c5ccccc5)c5ccccc5)c(O)c4c3C2=O)NC(=O)/C(C)=C/C=C/C(C)C(O)C(C)C(O)C(C)C(OC(C)=O)C1C (centres undefined)
inactive: dose: 25.0 mg/kg/injection, schedule: Q04DX003 (ip), vehicle: water 102 % of control | dose: 50.0 mg/kg/injection, schedule: Q04DX003 (ip), vehicle: water 102 % of control | dose: 100.0 mg/kg/injection, schedule: Q04DX003 (ip), vehicle: water 96 % of control | dose: 200.0 mg/kg/injection, schedule: Q04DX003 (ip), vehicle: water 98 % of control

Cc1cc(=O)oc2cc(OC(=O)Nc3ccc(F)c(Cl)c3)ccc12
inactive: dose: 3.12 mg/kg/injection, schedule: Q01DX009 (ip), vehicle: Klucel (hydroxypropylcellulose) (HPC) 102 % of control | dose: 6.25 mg/kg/injection, schedule: Q01DX009 (ip), vehicle: Klucel (hydroxypropylcellulose) (HPC) 96 % of control | dose: 12.5 mg/kg/injection, schedule: Q01DX009 (ip), vehicle: Klucel (hydroxypropylcellulose) (HPC) 93 % of control and 92 % of control | [6] 97 % of control | [12] 100 % of control | [13] 101 % of control

O=C1OC(O)c2cccc3cccc1c23 (centres undefined)
inactive: dose: 12.5 mg/kg/injection, schedule: Q01DX009 (ip), vehicle: saline with Tween-80 93 % of control and 89 % of control

Cc1nc2c3nc(C)oc3c3ccccc3c2o1
inactive: [14] 97 % of control | [15] 89 % of control | [16] 86 % of control

Cc1cc(C(N)=O)c(C#N)c(=O)[nH]1
inactive: dose: 75.0 mg/kg/injection, schedule: Q01DX001 (ip), vehicle: steriod suspending solution 94 % of control | dose: 150.0 mg/kg/injection, schedule: Q01DX001 (ip), vehicle: steriod suspending solution 95 % of control

CN1CC2C(N)N=C(N)NC2C1(C)C (centres undefined)
inactive: [10] 101 % of control | [11] 93 % of control | dose: 400.0 mg/kg/injection, schedule: Q04DX002 (ip), vehicle: saline 90 % of control

CC(C)(C)C(C(=O)O)C(=O)O
inactive: [9] 98 % of control | [10] 98 % of control | [11] 92 % of control

Nc1cccc(/C=C/c2ccc([N+](=O)[O-])cc2)c1
inactive: [14] 91 % of control | [15] 87 % of control | [16] 94 % of control

CC(=O)Nc1c(Cl)cc2c(c1Cl)C(=O)c1ccccc1-2
inactive: [6] 105 % of control | [12] 100 % of control | [13] 103 % of control

CC(C(O)c1ccccc1)N(C)/N=N/c1nc[nH]c1C(N)=O (centres undefined)
inactive: dose: 100.0 mg/kg/injection, schedule: Q01DX001 (ip), vehicle: saline with Tween-80 92 % of control | [1] 98 % of control | dose: 100.0 mg/kg/injection, schedule: Q04DX003 (ip), vehicle: saline with Tween-80 98 % of control | dose: 200.0 mg/kg/injection, schedule: Q01DX001 (ip), vehicle: saline with Tween-80 90 % of control | [3] 103 % of control | dose: 200.0 mg/kg/injection, schedule: Q04DX003 (ip), vehicle: saline with Tween-80 102 % of control | dose: 400.0 mg/kg/injection, schedule: Q01DX001 (ip), vehicle: saline with Tween-80 92 % of control | [17] 107 % of control | dose: 400.0 mg/kg/injection, schedule: Q04DX003 (ip), vehicle: saline with Tween-80 102 % of control

CSc1n[nH]c(=O)[nH]c1=O
inactive: [7] 100 % of control | [8] 102 % of control | dose: 400.0 mg/kg/injection, schedule: Q01DX001 (ip), vehicle: saline 94 % of control

CCC1c2ccc3cc(OC)ccc3c2CC1CC(=O)O (centres undefined)
inactive: [2] 92 % of control | [4] 92 % of control | [5] 86 % of control

O=C(c1ccccc1)C1CCCCCC1
inactive: [18] 108 % of control | [6] 94 % of control | [19] 102 % of control | [12] 98 % of control | [20] 104 % of control | [13] 98 % of control

Nc1ccc2cc(S(=O)(=O)O)ccc2c1
inactive: [2] 96 % of control | [4] 94 % of control | [5] 94 % of control

CC(=O)[O][Hg][c]1c(N)c(Cl)cc(C)c1F
inactive: dose: 10.0 mg/kg/injection, schedule: Q01DX001 (ip), vehicle: Klucel (hydroxypropylcellulose) (HPC) 101 % of control | dose: 20.0 mg/kg/injection, schedule: Q01DX001 (ip), vehicle: Klucel (hydroxypropylcellulose) (HPC) 86 % of control

O=C(O)CCc1ccc(-c2ccccc2)[nH]1
inactive: [14] 106 % of control | [15] 104 % of control | [16] 106 % of control

CCC(=O)c1c(C)c(C)cc2ccccc12
inactive: dose: 100.0 mg/kg/injection, schedule: Q01DX009 (ip), vehicle: other 97 % of control | dose: 200.0 mg/kg/injection, schedule: Q01DX009 (ip), vehicle: other 95 % of control | dose: 400.0 mg/kg/injection, schedule: Q01DX009 (ip), vehicle: other 108 % of control

Nc1ccccc1Sc1c(N)cc2c3c(cccc13)C(=O)NC2=O
inactive: [18] 90 % of control | [19] 90 % of control | [20] 94 % of control

CCCCCCCCCCCCCCCCCCO
inactive: [1] 99 % of control | [3] 92 % of control | [17] 87 % of control

Cc1ccccc1OS(=O)(=O)c1cccc([N+](=O)[O-])c1
inactive: [1] 93 % of control | [3] 92 % of control | [17] 90 % of control
